Consider 6 molecules from paper PMC10145249, “Synthesis and Evaluation of ^68Ga-Labeled (2S,4S)-4-Fluoropyrrolidine-2-Carbonitrile and (4R)-Thiazolidine-4-Carbonitrile Derivatives as Novel Fibroblast Activation Protein-Targeted PET Tracers for Cancer Imaging” (Molecules, 2023).

SMILES strings stand for the structures. Like-named read-outs stand apart in the source and are kept apart here. Where only a bound is given, the exact number is not on record here.

Data set [1] relates to HEK293T:hFAP tumor-bearing mice. Nature of the data set: Ex vivo biodistribution in HEK293T:hFAP tumor xenograft mouse model. On the procedure: (§1) Imaging and biodistribution studies were performed using immunodeficient male NRG (NOD.Cg-Rag1tm1Mom Il2rgtm1Wjl/SzJ) mice. All experiments were conducted according to the guidelines established by the Canadian Council on Animal Care and approved by Animal Ethics Committee of the University of British Columbia. The mice were subcutaneously inoculated with 7.5 × 10^6 HEK293T:hFAP cells in the left dorsal flank. When the tumors grew to 6–8 mm in diameter, the mice were used for PET/CT imaging and biodistribution studies.
For biodistribution studies, the mice were injected with ~1–2 MBq (0.01–0.04 nmol) of the ^68Ga-labeled tracer, using the exact procedures described above. At 1 h post injection, the mice were euthanized by CO2 inhalation. Blood was withdrawn by cardiac puncture and organs/tissues of interest were collected, weighed, and counted using a Perkin Elmer (Waltham, MA, USA) Wizard2 2480 automatic gamma counter. The percent injected dose per gram of tissues (%ID/g) for different tracers was calculated.
(§2) For blocking studies, HEK293T:hFAP tumor-bearing mice were co-injected with [^68Ga]Ga-SB03045 and excess nonradioactive Ga-FAPI-04 (0.5 mg/mouse) as a competitor. Imaging and biodistribution were performed at 1 h pi, similar to the process for the unblocked mice.

Data set [2] has as its system HEK293T:hFAP tumor xenografts. Nature of the data set: PET/CT imaging in HEK293T:hFAP tumor-bearing mice. The class given is in vivo. Conditions: for Visualization of tumor xenografts in PET/CT images / Excretion pathway: 1 h pi; for Excretion pathway: PET/CT. The protocol: as §1
PET/CT imaging experiments were carried out using a Siemens Inveon micro PET/CT scanner (Knoxville, TN, USA). Tumor-bearing mice were injected with ~4 to 6 MBq (0.02–0.13 nmol) of ^68Ga-labeled tracer through a lateral caudal tail vein under 2.5% isoflurane in oxygen anesthesia, followed by recovery and free roaming in their cage during the uptake period. A 10 min localization CT scan was acquired using 3 overlapping positions to cover each entire mouse. A CT scan was used for attenuation and scatter correction, and anatomical localization. A list mode acquisition was then performed for 15 min at 1 h pi with each mouse under isoflurane sedation. The images were reconstructed using 3D OSEM/MAP iterative methods.
as §2

Data set [3] can be described thus: LogD7.4 measurement (n-octanol / phosphate buffer pH 7.4). It is filed as physicochemical. The settings on record: n-octanol / 0.1 M phosphate buffer pH 7.4, n = 3. The protocol:
Briefly, ^68Ga-labeled tracers (1.11–1.48 MBq) were aliquoted into vials containing 3 mL of n-octanol and 3 mL of 0.1 M phosphate buffer (pH 7.4) in triplicate. Each vial was then vortexed (1 min) and centrifuged (5000 RPM, 10 min). The n-octanol and aqueous layers were sampled (1 mL) and counted using an automated gamma counter and the LogD7.4 value was calculated using the following equation: LogD7.4=log10counts in n-octanol phase/counts in buffer phase

The target of a further data set is T1, recombinant human FAP (Homo sapiens, UniProt Q12884).
T1 construct: purchased Biolegend
T1 sequence (Q12884 1-760): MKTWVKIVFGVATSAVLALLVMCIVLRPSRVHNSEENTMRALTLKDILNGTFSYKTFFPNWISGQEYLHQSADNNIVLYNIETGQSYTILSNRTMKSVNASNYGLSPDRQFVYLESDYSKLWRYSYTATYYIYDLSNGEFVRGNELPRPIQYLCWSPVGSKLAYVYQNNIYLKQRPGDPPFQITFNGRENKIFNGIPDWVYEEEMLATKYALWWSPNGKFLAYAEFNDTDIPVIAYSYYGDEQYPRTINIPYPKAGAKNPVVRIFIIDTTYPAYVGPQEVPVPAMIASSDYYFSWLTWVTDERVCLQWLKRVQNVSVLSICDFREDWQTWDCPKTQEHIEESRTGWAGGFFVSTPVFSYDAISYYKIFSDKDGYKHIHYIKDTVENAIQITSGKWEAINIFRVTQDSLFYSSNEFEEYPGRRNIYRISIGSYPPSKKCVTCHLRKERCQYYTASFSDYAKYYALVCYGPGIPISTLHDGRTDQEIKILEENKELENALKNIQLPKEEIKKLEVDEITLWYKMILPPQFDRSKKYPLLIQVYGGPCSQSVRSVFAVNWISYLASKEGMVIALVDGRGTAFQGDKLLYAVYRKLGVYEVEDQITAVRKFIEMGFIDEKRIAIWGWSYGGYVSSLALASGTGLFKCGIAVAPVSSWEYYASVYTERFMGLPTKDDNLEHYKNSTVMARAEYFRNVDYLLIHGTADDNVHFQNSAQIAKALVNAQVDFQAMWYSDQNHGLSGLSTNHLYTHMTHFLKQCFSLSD
Nature of the data set: In vitro fluorescence-based FAP enzymatic inhibition assay (Suc-Gly-Pro-AMC substrate). The class given is biochemical. Conditions: for IC50: recombinant human FAP, Suc-Gly-Pro-AMC, n = 3. On the procedure:
The half-maximal inhibitory concentration (IC50) values of the FAP-targeted ligands were measured using an in vitro enzymatic assay. Briefly, recombinant human FAP (Biolegend, San Diego, CA, USA; 0.2 µg/mL, 50 µL) was added into a Costar clear bottom 96-well plate. PBS and varied concentrations (25 pM to 1 µM) of ^natGa-complexed ligands were added to each well (in duplicate) containing the recombinant human FAP. After being incubated for 30 min at 37 °C, Suc-Gly-Pro-AMC (Bachem, Bubendorf, Switzerland; 20 mM, 50 µL) was added to each well. The velocities of AMC release were measured kinetically at λex = 380 nm, λem = 460 nm at 60 min at 37 °C using a FlexStation 3 Multi-Mode Microplate Reader.

Data set [4] has as its system FAP. More on the design: method as in PMID 20718420. Conditions: substituted 4-carboxymethylpyroglutamic acid scaffold; read-out: IC50 (FAP-inhibitory activity); cited from earlier work.
Data set [5] has as its system FAP. More on the design: method as in PMID 24617858. The settings on record: cited from earlier work; for IC50: (4-quinolinoyl)-glycyl-2-cyanopyrrolidine series, read-out: IC50 (FAP-inhibitory potency).
[6] abbreviates: HEK293T:hFAP tumor-bearing mice, 1 h pi, unblocked.
[7] abbreviates: 0.5 mg/mouse natGa-FAPI-04, 1 h pi.
Where [8] appears, read: HEK293T:hFAP tumor-bearing mice, 1 h pi, blocked: co-injected with natGa-FAPI-04 (0.5 mg/mouse).

In the case of `N#C[C@@H]1CSCN1C(=O)CNC(=O)c1ccnc2ccc(OCCCN3CCN(C(=O)CN4CCN5CCN(CC(=O)O)CCN(CC4)CC(=O)[O][68Ga+][O]C(=O)C5)CC3)cc12` [[^68Ga]Ga-SB03058], in data set [1] (HEK293T:hFAP tumor-bearing mice, 1 h pi), the “Fold lower tumor uptake than [68Ga]Ga-FAPI-04” value is listed as ~ 1.5 fold. Moreover, in data set [1] (setting [6]), the “Adrenal Glands uptake” value is on record as 2.50 ± 1.58 %ID/g, the Blood uptake was found to be 2.07 ± 0.21 %ID/g, the Bone uptake was found to be 4.73 ± 0.52 %ID/g and the Brain uptake is 0.11 ± 0.08 %ID/g. In data set [1] (setting [6]), this molecule showed a Fat uptake of 0.40 ± 0.23 %ID/g, a Heart uptake of 0.59 ± 0.09 %ID/g, a Kidneys uptake of 2.64 ± 0.28 %ID/g and a Liver uptake of 0.62 ± 0.19 %ID/g. Also, in data set [1] (setting [6]), the Lungs uptake is recorded as 1.25 ± 0.11 %ID/g, the Muscle uptake came out at 1.42 ± 0.31 %ID/g, the Pancreas uptake came to 0.86 ± 0.16 %ID/g and the “Small Intestines uptake” value is recorded as 0.61 ± 0.05 %ID/g. In data set [1] (setting [6]), this molecule yielded a Spleen uptake of 1.48 ± 1.01 %ID/g, a Stomach uptake of 0.26 ± 0.07 %ID/g, a Testes uptake of 0.48 ± 0.10 %ID/g and a Tumor uptake of 7.93 ± 1.33 %ID/g. Also, in data set [1] (setting [6]), the Tumor/Blood uptake ratio was 3.82 ± 0.25, the Tumor/Bone uptake ratio turned out to be 1.67 ± 0.13, the Tumor/Kidney uptake ratio stood at 3.01 ± 0.32 and the Tumor/Muscle uptake ratio is 5.64 ± 0.62. In data set [2], the “Visualization of tumor xenografts in PET/CT images” value is “clearly visualized” and the Excretion pathway result was “excreted mainly via the renal pathway”. For the same molecule, the LogD7.4 in data set [3] is recorded as −2.49 ± 0.28.

Consider `N#C[C@@H]1CSCN1C(=O)CNC(=O)c1ccnc2ccc(OCCCN3CCN(C(=O)CN4CCN5CCN(CC(=O)O)CCN(CC4)CC(=O)[O][Ga+][O]C(=O)C5)CC3)cc12` [^natGa-SB03058], for which, at recombinant human FAP, the “FAP-binding potency, fold higher than the di-fluorinated analog (natGa-FAPI-04)” value is recorded as over 5 fold and the IC50 (commonly the concentration that inhibits the measured activity by half) was 0.68 ± 0.09 nM.

With `N#C[C@@H]1C[C@H](F)CN1C(=O)CNC(=O)c1ccnc2ccc(OCCCN3CCN(C(=O)CN4CCN5CCN(CC(=O)O)CCN(CC4)CC(=O)[O][Ga+][O]C(=O)C5)CC3)cc12` [^natGa-SB03045], the IC50 on recombinant human FAP was determined as 1.59 ± 0.45 nM.

Consider `N#CC1CCCN1C(=O)CNC(=O)c1ccnc2ccccc12` (centres unmarked) [unsubstituted analog], for which the IC50 is […] in the data set on FAP [4] and […] with FAP [5].

For `N#CC1CC(F)CN1C(=O)CNC(=O)c1ccnc2ccccc12` [(4S)-fluoropyrrolidine], in the data set with FAP [5], the IC50 was 3.3 nM and the “Fold higher FAP affinity than the unsubstituted analog” value is reported as […].

`N#C[C@@H]1C[C@H](F)CN1C(=O)CNC(=O)c1ccnc2ccc(OCCCN3CCN(C(=O)CN4CCN5CCN(CC(=O)O)CCN(CC4)CC(=O)[O][68Ga+][O]C(=O)C5)CC3)cc12` [[^68Ga]Ga-SB03045]: in data set [1] (setting [7]), the “Reduction in bone uptake by co-injection of excess natGa-FAPI-04” value is given as ~ 97% and the “Reduction of average tumor uptake by co-injection of natGa-FAPI-04” value is ~ 96%. Besides, in data set [1] (setting [8]), the “Adrenal Glands uptake” value turned out to be 0.14 ± 0.08 %ID/g, the Blood uptake was 0.19 ± 0.12 %ID/g, the Bone uptake came to 0.09 ± 0.05 %ID/g and the Brain uptake is on record as 0.01 ± 0.01 %ID/g. In data set [1] (setting [8]), the Fat uptake is 0.04 ± 0.02 %ID/g, the Heart uptake was 0.05 ± 0.03 %ID/g, the Kidneys uptake is listed as 1.03 ± 0.43 %ID/g and the Liver uptake was 0.13 ± 0.04 %ID/g. In addition, in data set [1] (setting [8]), the Lungs uptake came to 0.15 ± 0.09 %ID/g, the Muscle uptake is 0.05 ± 0.03 %ID/g, the Pancreas uptake was determined as 0.04 ± 0.03 %ID/g and the “Small Intestines uptake” value was found to be 0.12 ± 0.06 %ID/g. In addition, in data set [1] (setting [8]), the Spleen uptake is reported as 0.10 ± 0.05 %ID/g, the Stomach uptake was 0.07 ± 0.06 %ID/g, the Testes uptake came out at 0.06 ± 0.03 %ID/g and the Tumor uptake is on record as 0.51 %ID/g. Further, in data set [1] (setting [8]), the Tumor/Blood uptake ratio is recorded as 3.06 ± 1.01, the Tumor/Bone uptake ratio is listed as 6.67 ± 2.72, the Tumor/Kidney uptake ratio turned out to be 0.50 ± 0.01 and the Tumor/Muscle uptake ratio was 12.4 ± 5.48. In addition, in data set [1] (setting [6]), the “Adrenal Glands uptake” value is listed as 0.49 ± 0.47 %ID/g, the Blood uptake was determined as 1.31 ± 0.43 %ID/g, the Bone uptake stood at 3.48 ± 1.02 %ID/g and the Brain uptake was determined as 0.05 ± 0.01 %ID/g. For the same molecule, in data set [1] (setting [6]), the Fat uptake was found to be 0.14 ± 0.08 %ID/g, the Heart uptake was 0.41 ± 0.15 %ID/g, the Kidneys uptake came to 2.23 ± 0.41 %ID/g and the Liver uptake is reported as 0.47 ± 0.10 %ID/g. In data set [1] (setting [6]), the Lungs uptake was 0.69 ± 0.20 %ID/g, the Muscle uptake is on record as 0.83 ± 0.42 %ID/g, the Pancreas uptake amounted to 0.52 ± 0.22 %ID/g and the “Small Intestines uptake” value was 0.40 ± 0.10 %ID/g. In data set [1] (setting [6]), this molecule yielded a Spleen uptake of 0.49 ± 0.19 %ID/g, a Stomach uptake of 0.31 ± 0.04 %ID/g, a Testes uptake of 0.26 ± 0.08 %ID/g and a Tumor uptake of 11.8 ± 2.35 %ID/g. Moreover, in data set [1] (setting [6]), the Tumor/Blood uptake ratio was determined as 9.89 ± 3.80, the Tumor/Bone uptake ratio amounted to 3.58 ± 1.07, the Tumor/Kidney uptake ratio stood at 5.41 ± 1.32 and the Tumor/Muscle uptake ratio amounted to 17.2 ± 8.68. In addition, in data set [2], the “Visualization of tumor xenografts in PET/CT images” value is reported as “clearly visualized” and the Excretion pathway result is “excreted mainly via the renal pathway”. Moreover, the “Tumor uptake in PET/CT on co-injection with natGa-FAPI-04” value in data set [2] (blocked, 0.5 mg/mouse natGa-FAPI-04, 1 h pi) is “reduced the tumor uptake to almost background level”. In addition, the LogD7.4 in data set [3] is −2.81 ± 0.05.
